Measured values as given in PubChem BioAssay AID1918943 (Molecular Pharmacology Branch, DTP, NCI, 2023).

System: 855422-203-R-J1-PDC complex spheroid viability
Experiment: Anticancer human tumor 855422-203-R-J1-PDC patient-derived bladder carcinoma cell line growth inhibition
Conditions: for IC50: curve of first compound; for viability, T/C: stronger effect = lower value
Method in brief: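 Drug combinations with the LSD1 inhibitor iadademstat tested on tumor cells co-cultured as spheroids with endothelial cells and mesenchymal stem cells. Concentrations descended in half-log increments from clinical Cmax or 10 microM.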

[1] = second compound 0.1 µM, first compound 0.0316 µM
[2] = second compound 0.1 µM, first compound 0.1 µM
[3] = second compound 0.1 µM, first compound 0.316 µM
[4] = second compound 0.1 µM, first compound 1 µM
[5] = second compound 0.1 µM, first compound 3.16 µM
[6] = second compound 0.1 µM, first compound 10 µM
[7] = second compound 0.316 µM, first compound 0.0316 µM
[8] = second compound 0.316 µM, first compound 0.1 µM
[9] = second compound 0.316 µM, first compound 0.316 µM
[10] = second compound 0.316 µM, first compound 1 µM
[11] = second compound 0.316 µM, first compound 3.16 µM
[12] = second compound 0.316 µM, first compound 10 µM
[13] = second compound 1 µM, first compound 0.0316 µM
[14] = second compound 1 µM, first compound 0.1 µM
[15] = second compound 1 µM, first compound 0.316 µM
[16] = second compound 1 µM, first compound 1 µM
[17] = second compound 1 µM, first compound 3.16 µM
[18] = second compound 1 µM, first compound 10 µM
[19] = second compound 3.16 µM, first compound 0.0316 µM
[20] = second compound 3.16 µM, first compound 0.1 µM
[21] = second compound 3.16 µM, first compound 0.316 µM
[22] = second compound 3.16 µM, first compound 1 µM
[23] = second compound 3.16 µM, first compound 3.16 µM
[24] = second compound 3.16 µM, first compound 10 µM
[25] = second compound 10 µM, first compound 0.0316 µM
[26] = second compound 10 µM, first compound 0.1 µM
[27] = second compound 10 µM, first compound 0.316 µM
[28] = second compound 10 µM, first compound 1 µM
[29] = second compound 10 µM, first compound 3.16 µM
[30] = second compound 10 µM, first compound 10 µM
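Also: drug exposure lasted 7 days starting on day 3 after seeding.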
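For viability, T/C in this document: luminescence viability as percent of DMSO vehicle wells = 100%.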

Row | SMILES | IC50 (second compound 0.1 µM) [nM] | IC50 (second compound 0.316 µM) [nM] | IC50 (second compound 1 µM) [nM] | IC50 (second compound 3.16 µM) [nM] | IC50 (second compound 10 µM) [nM] | viability, T/C [1] [%] | viability, T/C [2] [%] | viability, T/C [3] [%] | viability, T/C [4] [%] | viability, T/C [7] [%] | viability, T/C [8] [%] | viability, T/C [9] [%] | viability, T/C [10] [%] | viability, T/C [13] [%] | viability, T/C [14] [%] | viability, T/C [15] [%] | viability, T/C [16] [%] | viability, T/C [19] [%] | viability, T/C [20] [%] | viability, T/C [21] [%] | also measured
1 | CC(C)c1c(-c2ccccc2)nc2c(C#N)c[nH]n2c1=O + NC1CCC(NC2CC2c2ccccc2)CC1 | > 10000 | > 10000 | > 10000 | > 10000 | > 10000 | 82.4 | 88 | 92.9 | 87.7 | 93.2 | 85.3 | 93.4 | 83.3 | 88.6 | 92.2 | 85.9 | 86.7 | 89.1 | 80.4 | 81.1 | viability, T/C [5]: 85.3%; viability, T/C [6]: 74.7%; viability, T/C [11]: 77.1%; viability, T/C [12]: 74%; viability, T/C [17]: 80.1%; viability, T/C [18]: 75.3%; viability, T/C [22]: 77.1%; viability, T/C [23]: 79.9%; viability, T/C [24]: 80.2%; viability, T/C [25]: 82.9%; viability, T/C [26]: 91.7%; viability, T/C [27]: 84.4%; viability, T/C [28]: 74.6%; viability, T/C [29]: 69.6%; viability, T/C [30]: 73.4%
2 | CC1COCCN1c1cc(-c2ccnn2C)c2ccnc(-c3ccn[nH]3)c2n1 (stereo not given) + NC1CCC(NC2CC2c2ccccc2)CC1 | 183 | 163 | 178 | 99.9 | 86.1 | 86.5 | 59.5 | 41.5 | 33 | 90.3 | 60 | 39.5 | 33 | 96.4 | 63.8 | 38.7 | 34 | 87.4 | 49.9 | 32.5 | viability, T/C (second compound 0.1 µM, first compound 0.00316 µM): 95.1%; viability, T/C (second compound 0.1 µM, first compound 0.01 µM): 83.1%; viability, T/C (second compound 0.316 µM, first compound 0.00316 µM): 91.8%; viability, T/C (second compound 0.316 µM, first compound 0.01 µM): 78.9%; viability, T/C (second compound 1 µM, first compound 0.00316 µM): 85%; viability, T/C (second compound 1 µM, first compound 0.01 µM): 79.7%; viability, T/C (second compound 3.16 µM, first compound 0.00316 µM): 87.4%; viability, T/C (second compound 3.16 µM, first compound 0.01 µM): 83.5%; viability, T/C [22]: 27.2%; viability, T/C (second compound 10 µM, first compound 0.00316 µM): 88%; viability, T/C (second compound 10 µM, first compound 0.01 µM): 81.1%; viability, T/C [25]: 84%; viability, T/C [26]: 44.9%; viability, T/C [27]: 33.2%; viability, T/C [28]: 31.7%
3 | CC1COCCN1c1cc(C2(S(C)(=N)=O)CC2)nc(-c2ccnc3[nH]ccc23)n1 (stereo not given) + NC1CCC(NC2CC2c2ccccc2)CC1 | 5470 | 6000 | 3140 | 2790 | 2440 | 98.1 | 97.4 | 104 | 93.1 | 97.4 | 101 | 102 | 92.7 | 91.1 | 93.1 | 90.7 | 87.7 | 86.2 | 87.9 | 93.1 | viability, T/C [5]: 57.6%; viability, T/C [6]: 41.7%; viability, T/C [11]: 60.6%; viability, T/C [12]: 41.6%; viability, T/C [17]: 49.8%; viability, T/C [18]: 45.7%; viability, T/C [22]: 83.3%; viability, T/C [23]: 46%; viability, T/C [24]: 43.4%; viability, T/C [25]: 86%; viability, T/C [26]: 85.5%; viability, T/C [27]: 89.8%; viability, T/C [28]: 77.8%; viability, T/C [29]: 42%; viability, T/C [30]: 39.2%
